Test results: patent US11149033B2, “Heteroaryl compound, enantiomer, diastereomer or pharmaceutically acceptable salt thereof, and antiviral composition containing same as active ingredient” (priority 2016, dated 2021)
Like-named read-outs stand apart in the source and are kept apart here.

How the values were obtained:
[1] = tested on: A/California/07/2009 (H1N1); assay: Antiviral activity (drug efficacy evaluation by concentration) against A/California/07/2009 (H1N1); format: cell-based, A type influenza virus; details: Influenza A virus
A/Perth/16/2009 (H3N2) = assay: Antiviral activity (drug efficacy evaluation by concentration) against A/Perth/16/2009 (H3N2); format: cell-based, A type influenza virus; details: Influenza A virus
B/Florida/04/2006 = assay: Antiviral activity (drug efficacy evaluation by concentration) against B/Florida/04/2006; format: cell-based, B type influenza virus
[2] = H1N1, A/California/07/2009 (H1N1), read-out: EC50 A/California/07/2009 (H1N1)
[3] = CC50 B/Florida/04/2006, cytotoxicity in the B/Florida/04/2006 assay
[4] = H3N2, A/Perth/16/2009 (H3N2), read-out: EC50 A/Perth/16/2009 (H3N2)
[5] = read-out: EC50 B/Florida/04/2006, B/Florida/04/2006
[6] = CC50, third EC50/CC50 column pair (c7), beside the EC50 of c6

| SMILES | EC50 [1, 2] | CC50 (in vitro; [3]) | EC50 (A/Perth/16/2009 (H3N2); [4]) | EC50 (B/Florida/04/2006; [5]) | EC50 ([1]; H1N1, read-out: EC50) | EC50 (A/Perth/16/2009 (H3N2); H3N2, read-out: EC50) | EC50 (B/Florida/04/2006) | melting point | CC50 (in vitro; CC50, beside the EC50 of c2) | CC50 (in vitro; CC50, beside the EC50 of c4) | CC50 (in vitro; [6]) |
| --- | --- | --- | --- | --- | --- | --- | --- | --- | --- | --- | --- |
| Cc1nn(Cc2nnc(SCc3ccccc3-c3ccccc3)o2)c(C)c1Br [Compound 1, 2-(([1,1′-biphenyl]-2-ylmethyl)thio)-5-((4-bromo-3,5-dimethyl-1H-pyrazol-1-yl)methyl)-1,3,4-oxadiazole] | 0.77 µM | 41.3 µM | 1.15 µM | 0.98 µM |  |  |  |  |  |  |  |
| Brc1cnn(Cc2nnc(SCc3ccccc3-c3ccccc3)o2)c1 [Compound 3, 2-(([1,1′-biphenyl]-2-ylmethyl)thio)-5-((4-bromo-1H-pyrazol-1-yl)methyl)-1,3,4-oxadiazole] | 1.36 µM | > 50 µM | 1.75 µM | 1.21 µM |  |  |  |  |  |  |  |
| c1ccc(-c2ccccc2CSc2nnc(Cn3cccn3)o2)cc1 [Compound 4, 2-((1H-pyrazol-1-yl)methyl)-5-(([1,1′-biphenyl]-2-ylmethyl)thio)-1,3,4-oxadiazole] | > 50 µM | > 50 µM | > 50 µM | > 50 µM |  |  |  |  |  |  |  |
| Cc1cc(C)n(Cc2nnc(SCc3ccccc3-c3ccccc3)o2)n1 [Compound 5, 2-(([1,1′-biphenyl]-2-ylmethyl)thio)-5-((3,5-dimethyl-1H-pyrazol-1-yl)methyl)-1,3,4-oxadiazole] | 8.68 µM | > 50 µM | 10.7 µM | 9.49 µM |  |  |  |  |  |  |  |
| Cc1nn(Cc2nnc(SCc3ccccc3-c3ccccc3)o2)c(C)c1Cl [Compound 7, 2-(([1,1′-biphenyl]-2-ylmethyl)thio)-5-((4-chloro-3,5-dimethyl-1H-pyrazol-1-yl)methyl)-1,3,4-oxadiazole] | 1.26 µM | > 50 µM | 1.89 µM | 1.11 µM |  |  |  |  |  |  |  |
| Cc1ccccc1CSc1nnc(Cn2nc(C)c(Br)c2C)o1 [Compound 9, 2-((4-bromo-3,5-dimethyl-1H-pyrazol-1-yl)methyl)-5-((2-methylbenzyl)thio)-1,3,4-oxadiazole] | 4.2 µM | > 50 µM | 5.55 µM | 4.7 µM |  |  |  |  |  |  |  |
| Brc1ccc(NCc2nnc(SCc3ccccc3-c3ccccc3)o2)cc1 [Compound 47, N-((5-(([1,1′-biphenyl]-2-ylmethyl)thio)-1,3,4-oxadiazol-2-yl)methyl)-4-bromoaniline] | > 50 µM | > 50 µM |  | > 50 µM |  |  |  |  |  |  |  |
| CC(C)c1ccccc1/C=C/c1nnc(Cc2ccc(F)c(Cl)c2)o1 [Compound 131, 2-(3-chloro-4-fluorobenzyl)-5-(2-isopropylstyryl)-1,3,4-oxadiazole] |  |  |  |  | 0.927 µM | 0.835 µM | 1.02 µM |  |  |  |  |
| Cc1ccc(Cc2nnc(/C=C/c3ccccc3C(C)C)o2)cc1Br [Compound 145, 2-(3-bromo-4-methylbenzyl)-5-(2-isopropylstyryl)-1,3,4-oxadiazole] |  |  |  |  |  | 49.1 µM | > 50 µM | 111.2 °C | > 50 µM | > 50 µM | > 50 µM |
| FC(F)(F)c1cccc(/C=C/c2nnc(Cc3ccc(Br)cc3)o2)c1Cl [Compound 152, 2-(4-bromobenzyl)-5-(2-chloro-3-(trifluoromethyl)styryl)-1,3,4-oxadiazole] |  |  |  |  |  | > 50 µM | > 50 µM | 118.9 °C | > 50 µM | > 50 µM | > 50 µM |
| COc1cccc(Cc2nnc(/C=C/c3ccc(F)cc3Cl)o2)c1 [Compound 202, (E)-2-(2-chloro-4-fluorostyryl)-5-(3-methoxybenzyl)-1,3,4-oxadiazole] |  |  |  |  |  | > 50 µM | > 50 µM | 131.7 °C | > 50 µM | > 50 µM | > 50 µM |
| Fc1ccc(/C=C/c2nnc(Cc3ccc(Cl)c(Cl)c3)o2)c(Cl)c1 [Compound 208, 2-(2-chloro-4-fluorostyryl)-5-(3,4-dichlorobenzyl)-1,3,4-oxadiazole] |  |  |  |  |  | 0.72 µM | 1.19 µM | 179.9 °C | > 50 µM | > 50 µM | > 50 µM |
